Results on two compounds are retold here after ChEMBL document CHEMBL4680378, “Discovery of a Lead Compound for Specific Inhibition of Type I Collagen Production in Fibrosis” (ACS Med Chem Lett, 2021).

For orientation: IC50 means the midpoint of a concentration-inhibition curve. Higher therefore signals weaker potency.

Data set [1] is described as follows: Inhibition of type 1 collagen alpha2 polypeptide secretion in human lung fibroblasts incubated for 18 hrs followed by addition of fresh medium and measured after 3 hrs by Western blot analysis. The format is functional, tissue-based. Particulars: Primary lung fibroblast. (In western blotting, separated proteins are transferred to a membrane and probed.)
The target of data set [2] is La-related protein 6 (Homo sapiens) (UniProt Q9BRS8). Nature of the data set: Inhibition of LARP6 La module (unknown origin) binding with collagen 5' stem loop mRNA assessed as decrease in La module monomer bound band intensity at 1 to 50 uM by gel mobility shift assay. Particulars: dose 1-50 µM.
Data set [3] shares this target. Nature of the data set: Inhibition of LARP6 La domain (unknown origin) binding with collagen 5' stem loop mRNA at > 1 uM by gel mobility shift assay. The conditions noted are these: dose microM >1.
The target is the same in data set [4]. Briefly: Inhibition of LARP6 La domain (unknown origin) binding with collagen 5' stem loop mRNA assessed as decrease in La domain bound band intensity at 1 to 3 uM by gel mobility shift assay. The conditions noted are these: dose 1-3 µM.
Data set [5] has the same target. Nature of the data set: Inhibition of LARP6 La module (unknown origin) binding with collagen 5' stem loop mRNA at > 2.5 uM by gel mobility shift assay. The conditions noted are these: dose microM >2.5.
Data set [6] in a line: Inhibition of type 1 collagen alpha1 polypeptide secretion in human lung fibroblasts incubated for 18 hrs followed by addition of fresh medium and measured after 3 hrs by Western blot analysis. The data set is classed as functional, tissue-based. Particulars: Primary lung fibroblast.
The subject of data set [7] is Primary lung fibroblast. Briefly: Inhibition of type 1 collagen alpha2 polypeptide secretion in human lung fibroblasts at 4 uM incubated for 18 hrs followed by addition of fresh medium and measured after 3 hrs by Western blot analysis. The data set is classed as functional, tissue-based.
Data set [8] has as its target La-related protein 6 (Homo sapiens) (UniProt Q9BRS8). Nature of the data set: Inhibition of LARP6 La module (unknown origin) binding with collagen 5' stem loop mRNA assessed as decrease in La module dimer bound band intensity at 1 to 50 uM by gel mobility shift assay. Particulars: dose 1-50 µM.
The nature of data set [9]: Cytotoxicity against human lung fibroblasts assessed as effect on cell viability. The data set is classed as tissue-based. The conditions noted are these: primary lung fibroblast.
The test system of data set [10] is Primary lung fibroblast. Briefly: Inhibition of type 1 collagen alpha1 polypeptide secretion in human lung fibroblasts at 5 uM incubated for 18 hrs followed by addition of fresh medium and measured after 3 hrs by Western blot analysis. The format is functional, tissue-based.
In data set [11] the test system is Primary lung fibroblast. Nature of the data set: Inhibition of type 1 collagen secretion in human lung fibroblasts at 5 ug/ml incubated for 18 hrs followed by addition of fresh medium and measured after 3 hrs by Western blot analysis. The format is functional, tissue-based. The conditions noted are these: dose 5.0 µg/ml.

Calls of active or inactive are those of the source. The rule behind the calls is not given here.

La-related protein 6 (Homo sapiens), sequence (Q9BRS8 whole entry, looked up, the tested form may be a part): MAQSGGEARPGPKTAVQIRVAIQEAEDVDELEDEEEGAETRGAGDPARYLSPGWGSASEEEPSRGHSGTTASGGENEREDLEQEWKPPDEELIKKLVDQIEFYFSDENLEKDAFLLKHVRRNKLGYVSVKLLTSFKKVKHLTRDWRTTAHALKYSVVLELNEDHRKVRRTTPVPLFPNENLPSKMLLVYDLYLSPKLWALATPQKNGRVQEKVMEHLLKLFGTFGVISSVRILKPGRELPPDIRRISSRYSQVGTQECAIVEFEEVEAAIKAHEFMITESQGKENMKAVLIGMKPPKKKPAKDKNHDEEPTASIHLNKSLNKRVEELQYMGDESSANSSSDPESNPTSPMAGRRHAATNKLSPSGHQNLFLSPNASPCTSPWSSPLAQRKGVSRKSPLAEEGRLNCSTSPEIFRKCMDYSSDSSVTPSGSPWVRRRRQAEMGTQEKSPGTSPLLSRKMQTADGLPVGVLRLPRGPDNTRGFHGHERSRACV

As for `CCCCCCCCCCCCCC(=O)N[C@H]1C[C@@H](C(N)=O)N(c2cc(N3CCN(C(=O)c4cc(C)cc(C)c4)CC3)ncn2)C1`, the 50% inhibitory concentration (IC50) in data set [1] worked out at 3.1 µM; in data set [6] it was 4.4 µM. For the same compound, the inhibition entry in data set [2], in [3], in data set [4], in data set [5], in data set [7] and in data set [8] was “Active” throughout. Besides, the inhibition result in data set [10] was “Active”. Besides, in data set [9], the Activity entry is “Non-Toxic”.

For `CCCCCCCCCCCCCC(=O)N[C@H]1C[C@@H](C(N)=O)N(c2cc(N3CCN(C(=O)CCCc4ccccc4)CC3)ncn2)C1`, the inhibition entry in data set [11] is “Active”.
